# Experimental data reported in US20220409598A1, “METHOD OF CONTROLLING BLOOD SUGAR LEVEL AND TREATMENT OF DIABETES AND RELATED CONDITIONS” (ILDONG PHARMACEUTICAL CO., LTD., priority 2021, published 2022).
# Like-named read-outs stand apart in the source and are kept apart here.
# What was measured:
# [1] = Single ascending dose (SAD) study in healthy human, plasma PK; type: in vivo; conditions: for AUC(0-inf) / AUC(0-t) / Cmax: human, plasma, po; for AUC(0-inf): read-out: AUCinf, geometric mean; for AUC(0-t): read-out: AUClast, geometric mean; for Cmax: read-out: Cmax, geometric mean
# Method: (§1) To determine safety and pK data in human subjects, single ascending dose (SAD) study was conducted. SAD study included 5 cohorts of 8 healthy subjects who were randomized and received a single oral dose of Reference Example 1 compound or placebo (3:1) at 0.5 mg, 1 mg, 2 mg, 5 mg, or 10 mg. Each cohort was initiated after review of the safety and PK data of the previous cohort. 5 mg cohort was divided into two groups, wherein one group was administered with Reference Example 1 compound in fasted state and the other group was administered with Reference Example 1 compound together with food.
# Mean plasma concentration of Reference Example 1 compound following single dose of 0.5, 1, 2, 5, and 10 mg are shown in FIG. 4A (linear scale) and FIG. 4B (semi-logarithmic scale).
# FIG. 5A and FIG. 5B show mean plasma concentration of Reference Example 1 compound following single dose of 0.5 mg (fasted), 1 mg (fasted), 2 mg (fasted), 5 mg (fasted), and 5 mg (fed) in linear scale and semi-logarithmic scale, respectively.
# [2] = Single ascending dose (SAD) study in healthy human, safety; type: in vivo
# Method: as §1
# As expected from preclinical PK modelling, none of the single doses exceeded the PK stopping criteria for Cmax and AUClast.
# Of the 12 AEs, 5 were considered to be possibly related to IMP (Investigational Medicinal Product). The 5 AE included headaches (2), lower abdominal pain, diarrhea, and exanthema in the right upper arm, all of which were of mild intensity and recovered quickly.
# Overall, none of the AEs caused medical concern, and no stopping criteria per protocol were met.
# [3] = biological target: BSEP (bile salt export pump) (Homo sapiens, UniProt O95342); test: Human transporter inhibition study, BSEP; type: biochemical
# From the text: DILI risk may be due to potency of BSEP inhibition in combination with in vivo drug exposure (e.g., Cmax or Css (plasma concentration at steady state)).
# (§2) • (a) Human Transporter Inhibition Study and Safety Margin
# [4] = biological target: MRP2 (Homo sapiens, UniProt Q92887); test: Human transporter inhibition study, MRP2; type: biochemical; conditions: read-out: MRP2 in vitro inhibition IC50
# From the text: as §2
# [5] = biological target: MRP3 (Homo sapiens, UniProt O15438); test: Human transporter inhibition study, MRP3; type: biochemical
# From the text: as §2
# [6] = biological target: T1, MRP4 (Homo sapiens, UniProt O15439); test: Human transporter inhibition study, MRP4; type: biochemical; conditions: read-out: MRP4 in vitro inhibition IC50
# T1 sequence (O15439 1-1325): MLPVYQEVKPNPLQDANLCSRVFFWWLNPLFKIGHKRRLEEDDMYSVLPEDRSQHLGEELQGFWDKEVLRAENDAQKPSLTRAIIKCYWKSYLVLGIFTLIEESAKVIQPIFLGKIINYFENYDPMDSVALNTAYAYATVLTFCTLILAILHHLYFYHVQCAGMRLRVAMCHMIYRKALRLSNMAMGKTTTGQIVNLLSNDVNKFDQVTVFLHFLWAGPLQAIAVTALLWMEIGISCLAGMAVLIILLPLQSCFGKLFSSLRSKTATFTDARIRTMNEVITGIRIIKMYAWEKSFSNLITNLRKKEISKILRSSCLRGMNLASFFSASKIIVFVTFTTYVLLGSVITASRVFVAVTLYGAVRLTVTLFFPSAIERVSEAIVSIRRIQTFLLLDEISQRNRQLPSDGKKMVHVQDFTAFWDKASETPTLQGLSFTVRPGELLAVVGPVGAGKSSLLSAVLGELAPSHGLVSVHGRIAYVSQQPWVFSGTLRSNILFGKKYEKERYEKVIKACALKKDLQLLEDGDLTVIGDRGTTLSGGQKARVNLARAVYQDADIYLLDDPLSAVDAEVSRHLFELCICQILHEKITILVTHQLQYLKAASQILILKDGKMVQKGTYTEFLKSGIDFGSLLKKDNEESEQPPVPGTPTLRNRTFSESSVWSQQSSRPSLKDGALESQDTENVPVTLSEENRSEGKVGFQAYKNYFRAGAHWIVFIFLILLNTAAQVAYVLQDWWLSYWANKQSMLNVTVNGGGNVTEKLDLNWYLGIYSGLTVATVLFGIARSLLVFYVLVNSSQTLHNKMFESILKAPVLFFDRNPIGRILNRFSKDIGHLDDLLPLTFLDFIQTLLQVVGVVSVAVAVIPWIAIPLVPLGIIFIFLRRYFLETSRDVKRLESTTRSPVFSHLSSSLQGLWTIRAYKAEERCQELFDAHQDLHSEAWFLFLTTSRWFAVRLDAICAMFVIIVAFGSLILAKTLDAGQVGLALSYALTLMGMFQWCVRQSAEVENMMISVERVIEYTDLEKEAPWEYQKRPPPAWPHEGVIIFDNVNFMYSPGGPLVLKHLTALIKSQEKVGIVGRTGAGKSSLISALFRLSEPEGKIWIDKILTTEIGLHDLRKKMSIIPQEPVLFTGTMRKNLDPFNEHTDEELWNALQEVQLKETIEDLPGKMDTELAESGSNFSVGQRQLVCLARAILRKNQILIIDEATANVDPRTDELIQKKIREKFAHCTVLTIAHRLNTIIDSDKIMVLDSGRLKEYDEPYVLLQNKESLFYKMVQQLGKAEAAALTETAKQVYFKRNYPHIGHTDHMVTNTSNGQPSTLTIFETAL
# From the text: as §2
# [7] = system: glycocholic acid (GCA) accumulation; test: Bile acid analysis, glycocholic acid (GCA) accumulation; type: cell-based; conditions: at 1 μM
# From the text: Glycocholic acid (GCA) and glycochenodeoxycholic acid (GCDCA) are major components of human bile acids and their significant increase has been confirmed in DILI patients.
# [8] = system: HepaRG cell; test: Mitochondrial function inhibition in HepaRG cell; type: cell-based
# [9] = HμRELTox assay, hepatotoxic response; type: cell-based; conditions: read-out: TC50 (the source's name)
# [10] = system: FXR; test: Transcription factor profiling in 2D HepG2 cell, FXR; type: cell-based; conditions: 10 μM for 48 hours
# [11] = 0.5 mg, single oral dose 0.5 mg
# [12] = 5 mg, single oral dose 5 mg fasted
# [13] = 5 mg, single oral dose 5 mg fed
# BSEP (bile salt export pump), sequence (O95342 whole entry): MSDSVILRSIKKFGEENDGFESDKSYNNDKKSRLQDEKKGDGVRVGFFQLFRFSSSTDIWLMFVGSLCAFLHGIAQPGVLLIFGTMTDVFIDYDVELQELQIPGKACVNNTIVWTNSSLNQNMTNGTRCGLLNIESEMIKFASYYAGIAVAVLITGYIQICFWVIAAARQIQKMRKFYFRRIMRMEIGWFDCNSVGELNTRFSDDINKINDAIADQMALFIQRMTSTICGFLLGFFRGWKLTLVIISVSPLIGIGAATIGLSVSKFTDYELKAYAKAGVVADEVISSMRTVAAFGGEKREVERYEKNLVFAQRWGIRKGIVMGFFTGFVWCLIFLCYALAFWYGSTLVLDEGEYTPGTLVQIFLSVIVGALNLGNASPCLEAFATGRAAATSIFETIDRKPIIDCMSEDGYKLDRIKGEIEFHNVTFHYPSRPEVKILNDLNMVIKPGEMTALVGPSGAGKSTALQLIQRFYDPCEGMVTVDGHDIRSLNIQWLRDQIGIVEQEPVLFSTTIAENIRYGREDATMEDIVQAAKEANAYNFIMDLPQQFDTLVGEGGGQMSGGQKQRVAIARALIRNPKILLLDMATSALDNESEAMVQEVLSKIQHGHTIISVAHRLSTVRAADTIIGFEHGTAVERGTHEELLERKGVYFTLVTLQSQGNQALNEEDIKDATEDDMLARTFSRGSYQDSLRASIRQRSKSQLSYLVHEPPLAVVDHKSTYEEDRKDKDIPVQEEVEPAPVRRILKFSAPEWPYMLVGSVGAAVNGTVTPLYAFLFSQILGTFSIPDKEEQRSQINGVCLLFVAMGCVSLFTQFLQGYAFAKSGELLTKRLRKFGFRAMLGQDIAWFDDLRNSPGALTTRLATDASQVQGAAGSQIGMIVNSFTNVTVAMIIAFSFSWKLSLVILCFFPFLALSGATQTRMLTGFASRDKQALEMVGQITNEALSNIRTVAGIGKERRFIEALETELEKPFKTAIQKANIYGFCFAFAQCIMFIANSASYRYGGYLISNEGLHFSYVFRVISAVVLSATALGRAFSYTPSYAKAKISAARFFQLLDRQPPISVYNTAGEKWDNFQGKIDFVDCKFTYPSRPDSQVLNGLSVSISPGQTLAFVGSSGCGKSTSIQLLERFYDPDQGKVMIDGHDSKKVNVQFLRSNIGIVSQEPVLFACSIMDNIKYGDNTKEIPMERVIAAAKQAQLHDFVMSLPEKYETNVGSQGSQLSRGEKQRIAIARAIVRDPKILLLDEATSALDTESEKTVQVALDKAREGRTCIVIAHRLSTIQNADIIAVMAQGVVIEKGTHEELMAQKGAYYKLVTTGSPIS
# MRP2, sequence (Q92887 whole entry): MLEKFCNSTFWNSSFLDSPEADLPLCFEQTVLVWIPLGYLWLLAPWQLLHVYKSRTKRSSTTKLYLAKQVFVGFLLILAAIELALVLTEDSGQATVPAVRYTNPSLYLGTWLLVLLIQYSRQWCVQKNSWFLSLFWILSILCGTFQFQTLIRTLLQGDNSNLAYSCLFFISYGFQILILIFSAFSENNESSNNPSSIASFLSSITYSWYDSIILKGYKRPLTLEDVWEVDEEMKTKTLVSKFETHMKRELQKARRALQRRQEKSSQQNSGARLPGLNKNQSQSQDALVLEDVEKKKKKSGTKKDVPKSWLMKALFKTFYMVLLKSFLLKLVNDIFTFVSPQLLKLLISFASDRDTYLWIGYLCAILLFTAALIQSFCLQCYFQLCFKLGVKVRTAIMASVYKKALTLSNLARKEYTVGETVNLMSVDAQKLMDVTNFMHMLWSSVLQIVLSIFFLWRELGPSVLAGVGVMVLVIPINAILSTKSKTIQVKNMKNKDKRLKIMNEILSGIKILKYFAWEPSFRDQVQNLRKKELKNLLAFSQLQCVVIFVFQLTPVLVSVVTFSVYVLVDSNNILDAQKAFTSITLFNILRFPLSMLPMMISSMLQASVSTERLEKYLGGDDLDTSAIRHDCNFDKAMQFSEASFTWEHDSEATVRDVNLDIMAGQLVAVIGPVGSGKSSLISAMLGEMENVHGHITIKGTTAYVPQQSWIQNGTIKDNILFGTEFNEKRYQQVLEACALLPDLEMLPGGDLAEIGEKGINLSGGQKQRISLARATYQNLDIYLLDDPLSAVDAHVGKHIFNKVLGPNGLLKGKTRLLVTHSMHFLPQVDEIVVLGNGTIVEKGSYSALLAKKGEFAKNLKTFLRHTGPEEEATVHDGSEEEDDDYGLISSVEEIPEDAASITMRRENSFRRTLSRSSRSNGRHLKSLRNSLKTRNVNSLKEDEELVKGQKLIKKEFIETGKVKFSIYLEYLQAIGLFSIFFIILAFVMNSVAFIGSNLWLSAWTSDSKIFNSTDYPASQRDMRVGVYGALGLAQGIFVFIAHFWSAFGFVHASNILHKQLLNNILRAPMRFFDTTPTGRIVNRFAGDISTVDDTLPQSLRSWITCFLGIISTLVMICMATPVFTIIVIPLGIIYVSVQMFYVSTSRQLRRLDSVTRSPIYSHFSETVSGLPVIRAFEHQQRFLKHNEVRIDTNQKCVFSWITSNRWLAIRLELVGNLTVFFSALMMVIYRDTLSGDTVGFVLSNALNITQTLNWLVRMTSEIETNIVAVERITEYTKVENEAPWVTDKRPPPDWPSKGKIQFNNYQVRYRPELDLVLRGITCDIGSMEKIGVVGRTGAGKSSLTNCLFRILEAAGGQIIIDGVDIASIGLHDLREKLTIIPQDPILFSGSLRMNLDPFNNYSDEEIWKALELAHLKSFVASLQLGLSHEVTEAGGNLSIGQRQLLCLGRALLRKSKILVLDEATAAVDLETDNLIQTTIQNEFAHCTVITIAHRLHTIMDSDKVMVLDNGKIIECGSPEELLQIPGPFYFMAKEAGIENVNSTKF
# MRP3, sequence (O15438 whole entry): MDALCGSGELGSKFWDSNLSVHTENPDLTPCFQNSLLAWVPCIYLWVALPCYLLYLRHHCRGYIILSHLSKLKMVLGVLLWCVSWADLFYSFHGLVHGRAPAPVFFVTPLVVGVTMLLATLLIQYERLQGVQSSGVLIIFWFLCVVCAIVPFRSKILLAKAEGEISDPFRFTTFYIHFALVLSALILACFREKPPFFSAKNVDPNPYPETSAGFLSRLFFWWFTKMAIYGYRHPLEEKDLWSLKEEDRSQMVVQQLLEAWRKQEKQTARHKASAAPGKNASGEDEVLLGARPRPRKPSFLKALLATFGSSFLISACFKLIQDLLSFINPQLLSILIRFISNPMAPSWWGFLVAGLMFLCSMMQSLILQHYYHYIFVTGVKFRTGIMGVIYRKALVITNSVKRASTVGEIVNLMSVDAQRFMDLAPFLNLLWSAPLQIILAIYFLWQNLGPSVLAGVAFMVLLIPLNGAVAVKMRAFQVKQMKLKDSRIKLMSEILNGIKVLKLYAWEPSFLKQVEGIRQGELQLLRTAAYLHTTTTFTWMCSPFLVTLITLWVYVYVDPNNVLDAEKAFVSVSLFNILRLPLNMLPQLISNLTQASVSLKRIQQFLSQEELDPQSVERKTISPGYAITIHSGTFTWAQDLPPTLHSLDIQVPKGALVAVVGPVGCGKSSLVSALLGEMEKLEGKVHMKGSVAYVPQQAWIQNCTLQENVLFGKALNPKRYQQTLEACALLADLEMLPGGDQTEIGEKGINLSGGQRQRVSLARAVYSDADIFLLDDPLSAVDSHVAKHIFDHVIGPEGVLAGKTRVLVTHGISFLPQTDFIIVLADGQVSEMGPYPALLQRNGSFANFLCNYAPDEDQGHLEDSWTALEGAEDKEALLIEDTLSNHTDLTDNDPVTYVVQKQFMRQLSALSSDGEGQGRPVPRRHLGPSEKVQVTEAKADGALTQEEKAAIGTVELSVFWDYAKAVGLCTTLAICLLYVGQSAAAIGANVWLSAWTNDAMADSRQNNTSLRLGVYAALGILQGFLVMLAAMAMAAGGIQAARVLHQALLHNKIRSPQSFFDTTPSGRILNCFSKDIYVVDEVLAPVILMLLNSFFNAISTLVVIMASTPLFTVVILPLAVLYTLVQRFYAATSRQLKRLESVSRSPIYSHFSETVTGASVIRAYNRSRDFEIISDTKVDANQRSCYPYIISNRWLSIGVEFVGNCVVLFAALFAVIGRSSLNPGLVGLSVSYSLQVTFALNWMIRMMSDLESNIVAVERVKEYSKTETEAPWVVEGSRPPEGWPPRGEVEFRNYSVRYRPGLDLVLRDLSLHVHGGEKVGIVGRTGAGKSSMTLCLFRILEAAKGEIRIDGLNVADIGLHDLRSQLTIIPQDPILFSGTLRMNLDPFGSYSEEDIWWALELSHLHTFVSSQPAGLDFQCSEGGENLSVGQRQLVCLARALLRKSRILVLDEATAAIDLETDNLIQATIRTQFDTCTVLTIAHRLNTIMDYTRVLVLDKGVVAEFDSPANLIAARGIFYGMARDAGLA
smiles,measurement,setting,value
"CC#C[C@@H](CC(=O)O)c1ccc(O[C@@H]2CCc3c(-c4ccc(O[C@@H]5CCOC5)nc4)ccc(F)c32)cc1 [Reference Example 1, (S)-3-(4-(((R)-7-Fluoro-4-(6-(((R)-tetrahydrofuran-3-yl)oxy)pyridin-3-yl)-2,3-dihydro-1H-inden-1-yl)oxy)phenyl)hex-4-ynoic acid]",AUC(0-inf),[1]; [11],811 ng·h/mL
same,AUC(0-t),[1]; [11],680 ng·h/mL
same,Cmax,[1]; [11],28.4 ng/mL
same,AUC(0-inf),"[1]; 1 mg, single oral dose 1 mg",1660 ng·h/mL
same,AUC(0-t),"[1]; 1 mg, single oral dose 1 mg",1370 ng·h/mL
same,Cmax,"[1]; 1 mg, single oral dose 1 mg",55.8 ng/mL
same,AUC(0-inf),"[1]; 2 mg, single oral dose 2 mg",2980 ng·h/mL
same,AUC(0-t),"[1]; 2 mg, single oral dose 2 mg",2480 ng·h/mL
same,Cmax,"[1]; 2 mg, single oral dose 2 mg",109 ng/mL
same,AUC(0-inf),[1]; [12],7740 ng·h/mL
same,AUC(0-t),[1]; [12],6520 ng·h/mL
same,Cmax,[1]; [12],243 ng/mL
same,AUC(0-inf),[1]; [13],8270 ng·h/mL
same,AUC(0-t),[1]; [13],6930 ng·h/mL
same,Cmax,[1]; [13],250 ng/mL
same,AUC(0-inf),"[1]; 10 mg, single oral dose 10 mg",18600 ng·h/mL
same,AUC(0-t),"[1]; 10 mg, single oral dose 10 mg",14800 ng·h/mL
same,Cmax,"[1]; 10 mg, single oral dose 10 mg",545 ng/mL
same,Fed/fasted % ratio for AUClast,[1]; single dose 5 mg,106.28%
same,Fed/fasted % ratio for Cmax,[1]; single dose 5 mg,103.19%
same,"Changes in ECG, vital signs, and lab data",[2]; SAD study,no significant changes
same,Adverse events of special interest / serious adverse events,[2]; SAD study 0.5-10 mg,no adverse event of special interest (AESI) or serious adverse event (SAE) was reported
same,Number of AEs considered possibly related to IMP,"[2]; SAD study, all mild intensity",5
same,Number of adverse events (AE) reported,"[2]; SAD study, compound or placebo",12
same,Tolerability of single doses,[2]; single oral doses 0.5 mg to 10 mg,safe and well tolerated
same,IC50,"[3]; in vitro inhibition, read-out: BSEP IC50",14.3 µM
same,IC50,[3]; read-out: BSEP (bile salt export pump) IC50,14.3 µM
same,IC50,[4],39.9 µM
same,MRP3 in vitro inhibition IC50,[5],No inhibition
same,IC50,[6],4.4 µM
same,Accumulation of glycocholic acid (GCA),[7],does not show significant accumulation
same,Inhibitory effect on mitochondrial function (DILI risk),[8],lower DILI risk than fasiglifam
same,CC50,[9],52.7 µM
same,Increase of FXR activity,[10],1.58 fold
